Source: PubChem BioAssay (NCI)
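Where inhibition never reached the appropriate level, the endpoint shown equals the highest concentration tested. Otherwise, values were interpolated linearly from a five-concentration, 48-hour dose response in 96-well plates. Here, GI50 denotes the concentration required for 50% inhibition of growth. TGI is the concentration that stops growth completely.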

What was measured:
Test in all cases: inhibition of tumour cell growth, NCI panel, 48 h
[1] = tested on: MALME-3M melanoma
[2] = tested on: UACC-62 melanoma
[3] = tested on: SF-268 CNS
[4] = tested on: T-47D breast
[5] = tested on: SW-620 colon
[6] = tested on: OVCAR-5 ovarian
[7] = tested on: NCI/ADR-RES ovarian
[8] = tested on: IGROV1 ovarian
[9] = tested on: HOP-92 NSCLC
[10] = tested on: EKVX NSCLC
[11] = tested on: HOP-62 NSCLC
[12] = tested on: HS 578T breast
[13] = tested on: MDA-MB-435
[14] = tested on: LOX IMVI melanoma
[15] = tested on: OVCAR-4 ovarian
[16] = tested on: NCI-H23 lung
[17] = tested on: A498 renal
[18] = tested on: OVCAR-3 ovarian
[19] = tested on: CCRF-CEM leukemia
[20] = tested on: K-562 leukemia
[21] = tested on: DU-145 prostate
[22] = tested on: 786-0 renal
[23] = tested on: MDA-MB-231 breast
[24] = tested on: HCT-116 colon
[25] = tested on: HCC-2998 colon
[26] = tested on: M14 melanoma
[27] = tested on: SK-MEL-5 melanoma
[28] = tested on: CAKI-1 renal
[29] = tested on: SNB-75 CNS
[30] = tested on: PC-3 prostate
[31] = tested on: MCF7 breast
[32] = tested on: HT29 colon
[33] = tested on: SK-MEL-28 melanoma
[34] = tested on: RPMI-8226 leukemia
[35] = tested on: SF-539 CNS
[36] = tested on: MDA-N
[37] = tested on: MOLT-4 leukemia
[38] = tested on: A549 NSCLC
[39] = tested on: KM12 colon
[40] = tested on: HCT-15 colon
[41] = tested on: NCI-H460 lung
[42] = tested on: NCI-H226 lung
[43] = tested on: U251 CNS
[44] = tested on: ACHN renal
[45] = tested on: COLO 205 colon
[46] = tested on: RXF 393 renal
[47] = tested on: SF-295 CNS
[48] = tested on: SNB-19 CNS
[49] = tested on: SN12C renal
[50] = tested on: HL-60(TB) leukemia
[51] = tested on: OVCAR-8 ovarian
[52] = tested on: UO-31 renal
[53] = tested on: UACC-257 melanoma
[54] = tested on: TK-10 renal
[55] = tested on: SK-OV-3 ovarian

S=C(S)NCCNC(=S)S.[Cu+2]
GI50 [1]: > 100 µM
TGI [1]: > 100 µM
GI50 [2]: 33.9 µM
TGI [2]: > 100 µM
GI50 [3]: > 100 µM
TGI [3]: > 100 µM
GI50 [4]: > 100 µM
TGI [4]: > 100 µM
GI50 [5]: 88.6 µM
TGI [5]: > 100 µM
GI50 [6]: 52.4 µM
TGI [6]: > 100 µM
GI50 [7]: > 100 µM
TGI [7]: > 100 µM
GI50 [8]: 93.2 µM
TGI [8]: > 100 µM
GI50 [9]: > 100 µM
TGI [9]: > 100 µM
GI50 [10]: 70.1 µM
TGI [10]: > 100 µM
GI50 [11]: 68.6 µM
TGI [11]: > 100 µM
GI50 [12]: > 100 µM
TGI [12]: > 100 µM
GI50 [13]: 29.7 µM
TGI [13]: 79.2 µM
GI50 [14]: 31.8 µM
TGI [14]: > 100 µM
GI50 [15]: 36.1 µM
TGI [15]: > 100 µM
GI50 [16]: > 100 µM
TGI [16]: > 100 µM
GI50 [17]: 57.6 µM
TGI [17]: > 100 µM
GI50 [18]: > 100 µM
TGI [18]: > 100 µM
GI50 [19]: > 100 µM
TGI [19]: > 100 µM
GI50 [20]: > 100 µM
TGI [20]: > 100 µM
GI50 [21]: > 100 µM
TGI [21]: > 100 µM
GI50 [22]: 63.2 µM
TGI [22]: > 100 µM
GI50 [23]: > 100 µM
TGI [23]: > 100 µM
GI50 [24]: > 100 µM
TGI [24]: > 100 µM
GI50 [25]: 59.3 µM
TGI [25]: > 100 µM
GI50 [26]: > 100 µM
TGI [26]: > 100 µM
GI50 [27]: 25.8 µM
TGI [27]: 58.5 µM
GI50 [28]: > 100 µM
TGI [28]: > 100 µM
GI50 [29]: > 100 µM
TGI [29]: > 100 µM
GI50 [30]: > 100 µM
TGI [30]: > 100 µM
GI50 [31]: 27.4 µM
TGI [31]: 78.2 µM
GI50 [32]: > 100 µM
TGI [32]: > 100 µM
GI50 [33]: > 100 µM
TGI [33]: > 100 µM
GI50 [34]: > 100 µM
TGI [34]: > 100 µM
GI50 [35]: > 100 µM
TGI [35]: > 100 µM
GI50 [36]: 25.7 µM
TGI [36]: 69.5 µM
GI50 [37]: > 100 µM
TGI [37]: > 100 µM
GI50 [38]: 56.6 µM
TGI [38]: > 100 µM
GI50 [39]: > 100 µM
TGI [39]: > 100 µM
GI50 [40]: 51.6 µM
TGI [40]: > 100 µM
GI50 [41]: 29.7 µM
TGI [41]: 89.3 µM
GI50 [42]: > 100 µM
TGI [42]: > 100 µM
GI50 [43]: > 100 µM
TGI [43]: > 100 µM
GI50 [44]: > 100 µM
TGI [44]: > 100 µM
GI50 [45]: > 100 µM
TGI [45]: > 100 µM
GI50 [46]: 36.1 µM
TGI [46]: > 100 µM
GI50 [47]: > 100 µM
TGI [47]: > 100 µM
GI50 [48]: > 100 µM
TGI [48]: > 100 µM
GI50 [49]: > 100 µM
TGI [49]: > 100 µM
GI50 [50]: > 100 µM
TGI [50]: > 100 µM
GI50 [51]: > 100 µM
TGI [51]: > 100 µM
GI50 [52]: > 100 µM
TGI [52]: > 100 µM
GI50 [53]: > 100 µM
TGI [53]: > 100 µM
GI50 [54]: > 100 µM
TGI [54]: > 100 µM
GI50 [55]: 8.24 µM
TGI [55]: 23.1 µM
